target: RET (Homo sapiens (Human), UniProt P07949); assay: RET enzyme assay (CisBio HTRF kinEASE); format: biochemical; conditions: RET/KDR enzyme and cell assays
Sequence (P07949 658-1114): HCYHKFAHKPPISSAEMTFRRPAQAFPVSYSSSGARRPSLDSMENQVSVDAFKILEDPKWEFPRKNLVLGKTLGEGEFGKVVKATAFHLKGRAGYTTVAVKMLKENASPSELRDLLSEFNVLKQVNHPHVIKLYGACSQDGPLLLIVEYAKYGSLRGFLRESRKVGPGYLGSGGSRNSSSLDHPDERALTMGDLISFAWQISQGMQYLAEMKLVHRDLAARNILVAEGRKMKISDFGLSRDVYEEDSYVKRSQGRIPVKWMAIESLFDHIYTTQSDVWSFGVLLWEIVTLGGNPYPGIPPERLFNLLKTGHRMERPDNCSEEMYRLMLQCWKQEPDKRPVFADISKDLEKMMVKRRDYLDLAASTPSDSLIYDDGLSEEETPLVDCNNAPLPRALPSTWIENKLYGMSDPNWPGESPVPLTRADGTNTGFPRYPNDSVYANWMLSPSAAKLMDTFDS

desired activity in the assays described in Example 51 | SMILES
did not exhibit the desired activity | CNC(=O)c1cc2ccc(-c3nn(CC(=O)N(C)C)c4ncnc(N)c34)cc2[nH]1 [6-[4-amino-1-[2-(dimethylamino)-2-oxo-ethyl]pyrazolo[3,4-d]pyrimidin-3-yl]-N-methyl-1H-indole-2-carboxamide]
did not exhibit the desired activity | CNC(=O)c1cc2ccc(-c3nn(CCO)c4ncnc(N)c34)cc2[nH]1 [6-[4-amino-1-(2-hydroxyethyl)pyrazolo[3,4-d]pyrimidin-3-yl]-N-methyl-1H-indole-2-carboxamide]
did not exhibit the desired activity | CCNC(=O)c1cc2ccc(-c3nn([C@H]4CC[C@@H](O)C4)c4ncnc(NC)c34)cc2[nH]1 [N-ethyl-6-[1-[(1 S,3R)-3-hydroxycyclopentyl]-4-(methylamino)pyrazolo[3,4-d]pyrimidin-3-yl]-1H-indole-2-carboxamide]
did not exhibit the desired activity | CNC(=O)c1cc2ccc(-c3n[nH]c4ncnc(N)c34)cc2[nH]1 [6-(4-amino-1H-pyrazolo[3,4-d]pyrimidin-3-yl)-N-methyl-1H-indole-2-carboxamide]
did not exhibit the desired activity | CC(C)(C)n1nc(-c2ccc3cc(C(=O)O)[nH]c3c2)c2c(N)ncnc21 [6-(4-amino-1-tert-butyl-pyrazolo[3,4-d]pyrimidin-3-yl)-1H-indole-2-carboxylic acid]
did not exhibit the desired activity | CC(C)(C)n1nc(-c2ccc3cc(C(=O)Nc4nnc(C(F)(F)F)s4)[nH]c3c2)c2c(N)ncnc21 [6-(4-amino-1-tert-butyl-pyrazolo[3,4-d]pyrimidin-3-yl)-N-[5-(trifluoromethyl)-1,3,4-thiadiazol-2-yl]-1H-indole-2-carboxamide]
did not exhibit the desired activity | CNC(=O)c1cc2ccc(-c3nn(CCC(=O)N(C)C)c4ncnc(N)c34)cc2[nH]1 [6-[4-amino-1-[3-(dimethylamino)-3-oxo-propyl]pyrazolo[3,4-d]pyrimidin-3-yl]-N-methyl-1H-indole-2-carboxamide]

target: KDR (Homo sapiens (Human), UniProt P35968); assay: KDR enzyme assay (CisBio HTRF kinEASE); format: biochemical; conditions: ATP at Km, 15 mins pre-incubation
Sequence (P35968 790-1356): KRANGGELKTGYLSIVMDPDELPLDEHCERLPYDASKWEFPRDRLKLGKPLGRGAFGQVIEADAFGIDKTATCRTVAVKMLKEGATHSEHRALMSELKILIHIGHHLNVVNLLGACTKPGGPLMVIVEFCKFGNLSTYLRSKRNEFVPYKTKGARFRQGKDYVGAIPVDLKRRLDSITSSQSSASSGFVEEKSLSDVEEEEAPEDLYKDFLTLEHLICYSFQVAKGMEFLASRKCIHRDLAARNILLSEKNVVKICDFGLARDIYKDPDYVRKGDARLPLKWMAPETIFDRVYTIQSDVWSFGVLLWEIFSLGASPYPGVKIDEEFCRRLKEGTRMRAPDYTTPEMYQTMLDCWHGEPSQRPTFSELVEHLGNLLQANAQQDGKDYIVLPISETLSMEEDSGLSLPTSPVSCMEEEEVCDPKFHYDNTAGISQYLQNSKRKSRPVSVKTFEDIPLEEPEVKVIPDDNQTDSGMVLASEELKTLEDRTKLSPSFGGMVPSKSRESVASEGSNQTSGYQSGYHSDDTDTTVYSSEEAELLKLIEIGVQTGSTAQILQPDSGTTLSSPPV

SMILES | IC50
CC(C)(C)n1nc(-c2ccc3cc(C(=O)NCC(F)(F)F)[nH]c3c2)c2c(N)ncnc21 [Example 11, 6-(4-Amino-1-tert-butyl-pyrazolo[3,4-d]pyrimidin-3-yl)-N-(2,2,2-trifluoroethyl)-1H-indole-2-carboxamide] | 150000 nM

target: BaF3 cells expressing KIF5B-RET (Homo sapiens, UniProt P07949); assay: BaF3 cell assay, KIF5B-RET (CellTiter-Glo viability); format: cell-based; conditions: 48 hours incubation
Sequence (P07949 29-1114 limits assumed, change not shown): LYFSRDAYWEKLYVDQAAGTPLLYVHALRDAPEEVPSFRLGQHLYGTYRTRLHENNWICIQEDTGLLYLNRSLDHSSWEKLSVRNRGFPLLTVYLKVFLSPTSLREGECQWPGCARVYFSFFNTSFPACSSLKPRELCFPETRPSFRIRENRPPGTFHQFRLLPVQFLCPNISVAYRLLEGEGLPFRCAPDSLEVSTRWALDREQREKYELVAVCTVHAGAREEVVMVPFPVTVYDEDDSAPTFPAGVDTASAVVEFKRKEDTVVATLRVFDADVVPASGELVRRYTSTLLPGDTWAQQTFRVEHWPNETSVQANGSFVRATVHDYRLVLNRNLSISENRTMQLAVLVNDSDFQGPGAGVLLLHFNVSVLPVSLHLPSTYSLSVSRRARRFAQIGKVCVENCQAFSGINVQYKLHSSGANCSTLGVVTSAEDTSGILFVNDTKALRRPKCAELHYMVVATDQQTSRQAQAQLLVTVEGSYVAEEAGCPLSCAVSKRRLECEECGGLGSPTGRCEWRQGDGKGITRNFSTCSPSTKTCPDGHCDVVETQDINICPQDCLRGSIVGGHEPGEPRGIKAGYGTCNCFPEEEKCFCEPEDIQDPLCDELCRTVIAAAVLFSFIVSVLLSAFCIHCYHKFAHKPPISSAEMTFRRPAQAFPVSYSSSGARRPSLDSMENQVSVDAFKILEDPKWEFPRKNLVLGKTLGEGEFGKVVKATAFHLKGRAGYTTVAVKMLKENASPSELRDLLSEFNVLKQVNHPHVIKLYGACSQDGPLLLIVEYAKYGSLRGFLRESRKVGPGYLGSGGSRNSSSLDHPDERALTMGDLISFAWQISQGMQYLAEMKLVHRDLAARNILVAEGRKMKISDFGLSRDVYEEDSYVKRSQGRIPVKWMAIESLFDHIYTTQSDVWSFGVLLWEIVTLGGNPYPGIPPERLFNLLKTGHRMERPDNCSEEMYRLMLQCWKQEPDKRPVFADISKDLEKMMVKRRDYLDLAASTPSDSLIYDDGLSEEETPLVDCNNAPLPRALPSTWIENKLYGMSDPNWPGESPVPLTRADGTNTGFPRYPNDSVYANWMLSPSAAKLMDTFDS

SMILES | IC50
CC(C)(C)n1nc(-c2ccc3cc(C(=O)Nc4nccs4)[nH]c3c2)c2c(N)ncnc21 [Example 1, 6-(4-Amino-1-tert-butyl-pyrazolo[3,4-d]pyrimidin-3-yl)-N-thiazol-2-yl-1H-indole-2-carboxamide] | 83.6 nM
Cc1csc(NC(=O)c2cc3ccc(-c4nn(C(C)(C)C)c5ncnc(N)c45)cc3[nH]2)n1 [Example 26, 6-(4-Amino-1-tert-butyl-pyrazolo[3,4-d]pyrimidin-3-yl)-N-(4-methylthiazol-2-yl)-1H-indole-2-carboxamide] | 912 nM
CNC(=O)c1cc2ccc(-c3nn(C4CC4)c4ncnc(N)c34)cc2[nH]1 [Example 50, 6-(4-Amino-1-cyclopropyl-pyrazolo[3,4-d]pyrimidin-3-yl)-N-methyl-1H-indole-2-carboxamide] | 222 nM

target: BaF3 cells expressing KDR (Homo sapiens, UniProt P35968, cells depend on it, form not given); assay: not given; conditions: read-out: KDR Cell IC50; 48 hours incubation
Sequence (P35968 20-1356 limits assumed, change not shown): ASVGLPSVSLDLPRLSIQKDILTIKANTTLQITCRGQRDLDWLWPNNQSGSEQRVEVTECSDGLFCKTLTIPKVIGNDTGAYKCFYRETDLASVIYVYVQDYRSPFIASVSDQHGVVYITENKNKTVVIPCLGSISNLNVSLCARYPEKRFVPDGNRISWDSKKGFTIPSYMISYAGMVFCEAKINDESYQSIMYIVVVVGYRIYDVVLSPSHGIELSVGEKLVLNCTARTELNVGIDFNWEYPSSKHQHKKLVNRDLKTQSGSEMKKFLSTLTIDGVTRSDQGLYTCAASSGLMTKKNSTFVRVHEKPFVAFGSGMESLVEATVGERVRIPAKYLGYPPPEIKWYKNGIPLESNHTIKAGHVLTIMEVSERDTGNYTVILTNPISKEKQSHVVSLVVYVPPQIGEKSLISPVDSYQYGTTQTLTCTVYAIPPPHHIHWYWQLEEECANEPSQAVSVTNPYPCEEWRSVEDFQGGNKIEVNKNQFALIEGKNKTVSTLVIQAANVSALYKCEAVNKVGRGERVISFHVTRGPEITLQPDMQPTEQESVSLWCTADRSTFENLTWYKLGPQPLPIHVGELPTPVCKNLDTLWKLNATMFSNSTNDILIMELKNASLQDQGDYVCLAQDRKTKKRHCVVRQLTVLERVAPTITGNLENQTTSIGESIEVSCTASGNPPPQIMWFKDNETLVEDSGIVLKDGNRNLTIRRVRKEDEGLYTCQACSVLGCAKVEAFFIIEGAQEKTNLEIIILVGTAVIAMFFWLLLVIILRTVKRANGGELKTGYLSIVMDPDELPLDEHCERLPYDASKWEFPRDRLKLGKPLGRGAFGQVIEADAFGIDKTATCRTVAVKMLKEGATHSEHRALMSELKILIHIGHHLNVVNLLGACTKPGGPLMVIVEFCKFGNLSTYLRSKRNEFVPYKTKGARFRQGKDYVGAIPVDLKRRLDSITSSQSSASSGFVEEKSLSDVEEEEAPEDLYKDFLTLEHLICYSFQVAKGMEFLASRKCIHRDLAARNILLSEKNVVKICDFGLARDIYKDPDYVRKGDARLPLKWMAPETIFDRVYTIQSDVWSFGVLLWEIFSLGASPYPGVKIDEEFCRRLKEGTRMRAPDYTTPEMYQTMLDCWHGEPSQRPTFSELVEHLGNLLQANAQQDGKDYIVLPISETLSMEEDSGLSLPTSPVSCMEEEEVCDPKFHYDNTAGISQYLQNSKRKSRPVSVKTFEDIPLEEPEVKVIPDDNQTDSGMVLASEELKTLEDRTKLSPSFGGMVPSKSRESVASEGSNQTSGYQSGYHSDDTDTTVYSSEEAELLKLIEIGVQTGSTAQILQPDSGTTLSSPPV

SMILES | IC50
CC(C)n1nc(-c2ccc3cc(C(=O)Nc4nccs4)[nH]c3c2)c2c(N)ncnc21 [Example 37, 6-(4-Amino-1-isopropyl-pyrazolo[3,4-d]pyrimidin-3-yl)-N-thiazol-2-yl-1H-indole-2-carboxamide] | 702 nM
CC(C)(C)n1nc(-c2ccc3cc(C(=O)NCC(F)(F)F)[nH]c3c2)c2c(N)ncnc21 [Example 11, 6-(4-Amino-1-tert-butyl-pyrazolo[3,4-d]pyrimidin-3-yl)-N-(2,2,2-trifluoroethyl)-1H-indole-2-carboxamide] | 4260 nM

— patent publication US11352361B2, “Compounds useful as RET inhibitors” (Cancer Research Technology Limited, priority 2017, dated 2022)
